Patent publication US6352958B1, “Cycloimido-substituted benzofused heterocyclic herbicides” (FMC Corporation, priority 1997, dated 2002)

Legend:
Assay type in all cases: in vivo
[1] = system: Johnsongrass (Sorghum halepense); assay: Preemergence herbicidal activity, johnsongrass; conditions: Rate of Application 0.3 Kg/Ha, examined after 12-17 days
Description: (§1) The benzofused heterocyclic compounds of this invention were tested for pre- and postemergence herbicidal activity using a variety of crops and weeds. The test plants included soybean (Glycine max var. Winchester), field corn (Zea mays var. Pioneer 3732), wheat (Triticum aestivum var. Lew), morningglory (Ipomea lacunosa or Ipomea hederacea), velvetleaf (Abutilon theophrasti), green foxtail (Setaria viridis), Johnsongrass (Sorghum halepense), blackgrass (Aloepecurus myosuroides), common chickweed (Stellaria media), and common cocklebur (Xanthium strumarium L.).
(§2) For preemergence testing, two disposable fiber flats (8 cm×15 cm×25 cm) for each rate of application of each candidate herbicide were filled to an approximate depth of 6.5 cm with steam-sterilized sandy loam soil. The soil was leveled and impressed with a template to provide five evenly spaced furrows 13 cm long and 0.5 cm deep in each flat. Seeds of soybean, wheat, corn, green foxtail, and johnsongrass were planted in the furrows of the first flat, and seeds of velvetleaf, morningglory, common chickweed, cocklebur, and blackgrass were planted in the furrows of the second flat. The five-row template was employed to firmly press the seeds into place. A topping soil of equal portions of sand and sandy loam soil was placed uniformly on top of each flat to a depth of approximately 0.5 cm. Flats for postemergence testing were prepared in the same manner except that they were planted 9-14 days prior to the preemergence flats and were placed in a greenhouse and watered, thus allowing the seeds to germinate and the foliage to develop.
(§3) In both pre- and postemergence tests, a stock solution of the candidate herbicide was prepared by dissolving 0.27 g of the compound in 20 mL of water/acetone (50/50) containing 0.5% v/v sorbitan monolaurate. For an application rate of 3000 g/ha of herbicide a 10 mL portion of the stock solution was diluted with water/acetone (50/50) to 45 mL.
(§4) The preemergence flats were initially subjected to a light water spray. The four flats were placed two by two along a conveyor belt (i.e., the two preemergence followed by the two postemergence flats). The conveyor belt fed under a spray nozzle mounted about ten inches above the post-emergent foliage. The preemergent flats were elevated on the belt so that the soil surface was at the same level below the spray nozzle as the foliage canopy of the postemergent plants. The spray of herbicidal solution was commenced and once stabilized, the flats were passed under the spray at a speed to receive a coverage equivalent of 100 L/ha. At this coverage the application rates are those shown in the above table for the individual herbicidal solutions. The preemergence flats were watered immediately thereafter, placed in the greenhouse and watered regularly at the soil surface. The postemergence flats were immediately placed in the green-house and not watered until 24 hours after treatment with the test solution. Thereafter they were regularly watered at ground level. After 12-17 days the plants were examined and the phytotoxicity data were recorded.
(§5) Phytotoxicity data were taken as percent control. Percent control was determined by a method similar to the 0 to 100 rating system disclosed in “Research Methods in Weed Science,” 2nd ed., B. Truelove, Ed.; Southern Weed Science Society; Auburn University, Auburn, Ala., 1977.

[2] = system: soybean (Glycine max var. Winchester); assay: Postemergence herbicidal activity, soybean; conditions: rate of application 0.3 Kg/Ha, rated after 12-17 days
Description: as §1, §2, §3, §4, §5

[3] = system: wheat (Triticum aestivum var. Lew); assay: Postemergence herbicidal activity, wheat; conditions: rate of application 0.3 Kg/Ha, rated after 12-17 days
Description: as §1, §2, §3, §4, §5

[4] = system: common chickweed (Stellaria media); assay: Postemergence herbicidal activity, chickweed; conditions: rate of application 0.3 Kg/Ha, rated after 12-17 days
Description: as §1, §2, §3, §4, §5

[5] = system: velvetleaf (Abutilon theophrasti); assay: Preemergence herbicidal activity, velvetleaf; conditions: Rate of Application 0.3 Kg/Ha, examined after 12-17 days
Description: as §1, §2, §3, §4, §5

[6] = system: morningglory (Ipomea lacunosa or Ipomea hederacea); assay: Preemergence herbicidal activity, morningglory; conditions: Rate of Application 0.3 Kg/Ha, examined after 12-17 days
Description: as §1, §2, §3, §4, §5

[7] = system: Johnsongrass (Sorghum halepense); assay: Postemergence herbicidal activity, johnsongrass; conditions: rate of application 0.3 Kg/Ha, rated after 12-17 days
Description: as §1, §2, §3, §4, §5

[8] = system: common chickweed (Stellaria media); assay: Preemergence herbicidal activity, chickweed; conditions: Rate of Application 0.3 Kg/Ha, examined after 12-17 days
Description: as §1, §2, §3, §4, §5

[9] = system: common cocklebur (Xanthium strumarium L.); assay: Preemergence herbicidal activity, cocklebur; conditions: Rate of Application 0.3 Kg/Ha, examined after 12-17 days
Description: as §1, §2, §3, §4, §5

[10] = system: velvetleaf (Abutilon theophrasti); assay: Postemergence herbicidal activity, velvetleaf; conditions: rate of application 0.3 Kg/Ha, rated after 12-17 days
Description: as §1, §2, §3, §4, §5

[11] = system: wheat (Triticum aestivum var. Lew); assay: Preemergence herbicidal activity, wheat; conditions: Rate of Application 0.3 Kg/Ha, examined after 12-17 days
Description: as §1, §2, §3, §4, §5

[12] = system: field corn (Zea mays var. Pioneer 3732); assay: Preemergence herbicidal activity, corn; conditions: Rate of Application 0.3 Kg/Ha, examined after 12-17 days
Description: as §1, §2, §3, §4, §5

[13] = system: morningglory (Ipomea lacunosa or Ipomea hederacea); assay: Postemergence herbicidal activity, morningglory; conditions: rate of application 0.3 Kg/Ha, rated after 12-17 days
Description: as §1, §2, §3, §4, §5

[14] = system: green foxtail (Setaria viridis); assay: Preemergence herbicidal activity, green foxtail; conditions: Rate of Application 0.3 Kg/Ha, examined after 12-17 days
Description: as §1, §2, §3, §4, §5

[15] = system: soybean (Glycine max var. Winchester); assay: Preemergence herbicidal activity, soybean; conditions: Rate of Application 0.3 Kg/Ha, examined after 12-17 days
Description: as §1, §2, §3, §4, §5

[16] = system: blackgrass (Aloepecurus myosuroides); assay: Preemergence herbicidal activity, blackgrass; conditions: Rate of Application 0.3 Kg/Ha, examined after 12-17 days
Description: as §1, §2, §3, §4, §5

[17] = system: green foxtail (Setaria viridis); assay: Postemergence herbicidal activity, green foxtail; conditions: rate of application 0.3 Kg/Ha, rated after 12-17 days
Description: as §1, §2, §3, §4, §5

[18] = system: field corn (Zea mays var. Pioneer 3732); assay: Postemergence herbicidal activity, corn; conditions: rate of application 0.3 Kg/Ha, rated after 12-17 days
Description: as §1, §2, §3, §4, §5

[19] = system: common cocklebur (Xanthium strumarium L.); assay: Postemergence herbicidal activity, cocklebur; conditions: rate of application 0.3 Kg/Ha, rated after 12-17 days
Description: as §1, §2, §3, §4, §5

SMILES | PREEMERGENCE HERBICIDAL ACTIVITY (% CONTROL) SORHA [1] [%] | Postemergence herbicidal activity (% control) SOY [2] [%] | Postemergence herbicidal activity (% control) WHT [3] [%] | Postemergence herbicidal activity (% control) STEME [4] [%] | PREEMERGENCE HERBICIDAL ACTIVITY (% CONTROL) ABUTH [5] [%] | PREEMERGENCE HERBICIDAL ACTIVITY (% CONTROL) IPOSS [6] [%] | Postemergence herbicidal activity (% control) SORHA [7] [%] | PREEMERGENCE HERBICIDAL ACTIVITY (% CONTROL) STEME [8] [%] | PREEMERGENCE HERBICIDAL ACTIVITY (% CONTROL) XANPE [9] [%] | Postemergence herbicidal activity (% control) ABUTH [10] [%] | PREEMERGENCE HERBICIDAL ACTIVITY (% CONTROL) WHT [11] [%] | PREEMERGENCE HERBICIDAL ACTIVITY (% CONTROL) CRN [12] [%] | Postemergence herbicidal activity (% control) IPOSS [13] [%] | PREEMERGENCE HERBICIDAL ACTIVITY (% CONTROL) SETVI [14] [%] | PREEMERGENCE HERBICIDAL ACTIVITY (% CONTROL) SOY [15] [%] | PREEMERGENCE HERBICIDAL ACTIVITY (% CONTROL) ALOMY [16] [%] | Postemergence herbicidal activity (% control) SETVI [17] [%] | Postemergence herbicidal activity (% control) CRN [18] [%] | Postemergence herbicidal activity (% control) XANPE [19] [%]
CN(C)C(=O)c1cc2c(Cl)ccc(-n3c(=O)cc(C(F)(F)F)n(C)c3=O)c2o1 [Compound 271] | 90 | 80 | 40 | 100 | 100 | 100 | 50 | 100 | 100 | 100 | 70 | 90 | 100 | 100 | 80 | 80 | 70 | 60 | –
Cn1c(C(F)(F)F)cc(=O)n(-c2ccc(Cl)c3cc(C(N)=O)oc23)c1=O [Compound 269] | 75 | 90 | 40 | 80 | 100 | 100 | 60 | 100 | 100 | 100 | 30 | 80 | 80 | 100 | 60 | 70 | 70 | 70 | –
Cn1c(C(F)(F)F)cc(=O)n(-c2ccc(Cl)c3cc(C(Br)Br)oc23)c1=O [Compound 233] | 50 | 90 | 30 | 30 | 100 | 95 | 30 | 20 | 20 | 100 | 30 | 70 | 100 | 60 | 40 | – | 30 | 60 | 30
Cn1c(C(F)(F)F)cc(=O)n(-c2ccc(Cl)c3cc(C(C)(C)O)oc23)c1=O [Compound 241] | 100 | 90 | 60 | 85 | 100 | 100 | 70 | 100 | 100 | 100 | 70 | 95 | 100 | 100 | 60 | – | 100 | 70 | 95
Cn1c(C(F)(F)F)cc(=O)n(-c2ccc(Cl)c3cc(C(=O)O)oc23)c1=O [Compound 266] | 30 | 60 | 40 | 10 | 40 | 70 | 40 | 0 | 0 | 50 | 30 | 60 | 60 | 30 | 50 | – | 40 | 60 | 10
COC(=O)Cc1nc2c(-n3c(=O)cc(C(F)(F)F)n(C)c3=O)c(F)cc(Br)c2o1 [Compound 49] | 90 | 95 | 70 | 40 | 100 | 100 | 90 | 20 | 90 | 100 | 50 | 80 | 100 | 100 | 95 | – | 100 | 80 | 30
Cn1c(C(F)(F)F)cc(=O)n(-c2c(F)cc(Cl)c3cc(C(C)(C)NS(C)(=O)=O)oc23)c1=O [Compound 255] | 100 | 100 | 100 | 100 | 100 | 100 | 100 | 100 | 100 | 100 | 90 | 95 | 100 | 100 | 100 | – | 100 | 100 | 100
